Test results from ChEMBL document CHEMBL1128544, “2-[N'-(3-arylallylidene)hydrazino]adenosines showing A2a adenosine agonist properties and vasodilation activity” (J Med Chem, 1995).

Legend:
Adenosine receptor A1 [1] = target: T1, Adenosine receptor A1 (Rattus norvegicus, UniProt P25099)
T1 sequence (P25099 whole entry): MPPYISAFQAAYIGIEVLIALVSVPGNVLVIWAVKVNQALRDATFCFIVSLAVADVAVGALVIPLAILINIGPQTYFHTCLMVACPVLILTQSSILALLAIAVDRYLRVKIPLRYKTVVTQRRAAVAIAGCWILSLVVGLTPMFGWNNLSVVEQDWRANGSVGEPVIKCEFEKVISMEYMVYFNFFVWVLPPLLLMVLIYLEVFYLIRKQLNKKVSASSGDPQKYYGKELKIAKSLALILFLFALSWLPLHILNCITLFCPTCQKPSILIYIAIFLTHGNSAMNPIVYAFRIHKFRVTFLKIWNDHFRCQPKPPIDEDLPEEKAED
Description: Displacement of [3H]CHA from Adenosine A1 receptor of rat brain

Adenosine receptor A2a [2] = target: T2, Adenosine receptor A2a (Rattus norvegicus, UniProt P30543)
T2 sequence (P30543 whole entry): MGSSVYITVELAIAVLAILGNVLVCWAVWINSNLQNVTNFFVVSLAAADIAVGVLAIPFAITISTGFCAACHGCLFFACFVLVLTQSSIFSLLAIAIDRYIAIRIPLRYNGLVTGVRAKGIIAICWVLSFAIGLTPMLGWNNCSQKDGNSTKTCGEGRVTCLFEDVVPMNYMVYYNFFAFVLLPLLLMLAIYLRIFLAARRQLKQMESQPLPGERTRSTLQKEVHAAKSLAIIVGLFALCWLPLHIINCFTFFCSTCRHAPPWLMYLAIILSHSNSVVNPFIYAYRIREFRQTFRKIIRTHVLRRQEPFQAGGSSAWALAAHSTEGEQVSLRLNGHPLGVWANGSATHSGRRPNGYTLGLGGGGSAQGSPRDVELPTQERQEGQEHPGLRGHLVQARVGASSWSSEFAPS
Description: Functional activity at Adenosine A2A receptor as vasorelaxation of rat aorta

Adenosine receptor A2a [3] = target: T2, Adenosine receptor A2a; remark: listed apart in the source
Adenosine receptor A1 [4] = target: T1, Adenosine receptor A1; experiment: Activity at Adenosine A1 receptor of rat atria; format: functional

Row | Structure (SMILES) | Ki (Adenosine receptor A1 [1]) | EC50 (Adenosine receptor A2a [2]) | Ki (Adenosine receptor A2a [3]) | EC50 (Adenosine receptor A1 [4])
1 | Nc1nc(N/N=C/C=C(c2ccccc2)c2ccccc2)nc2c1ncn2[C@@H]1O[C@H](CO)[C@@H](O)[C@H]1O | 64 nM | 704 nM | > 1000 nM | > 1.86 µM
2 | CN(C)c1ccc(/C=C/C=N/Nc2nc(N)c3ncn([C@@H]4O[C@H](CO)[C@@H](O)[C@H]4O)c3n2)cc1 | 101 nM | 728 nM | 170 nM | 0.866 µM
3 | COc1ccccc1/C=C/C=N/Nc1nc(N)c2ncn([C@@H]3O[C@H](CO)[C@@H](O)[C@H]3O)c2n1 | 264 nM | 529 nM | 384 nM | 1.97 µM
4 | Nc1nc(N/N=C/C=C/c2ccco2)nc2c1ncn2[C@@H]1O[C@H](CO)[C@@H](O)[C@H]1O | 1670 nM | 800 nM | 83 nM | 4.34 µM
5 | Nc1nc(N/N=C/C=C/c2ccc([N+](=O)[O-])cc2)nc2c1ncn2[C@@H]1O[C@H](CO)[C@@H](O)[C@H]1O | 524 nM | 482 nM | 23 nM | > 10 µM
6 | Nc1nc(N/N=C/C=C/c2ccccc2[N+](=O)[O-])nc2c1ncn2[C@@H]1O[C@H](CO)[C@@H](O)[C@H]1O | 935 nM | 638 nM | 54 nM | > 10 µM
7 | COc1cc(/C=C/C=N/Nc2nc(N)c3ncn([C@@H]4O[C@H](CO)[C@@H](O)[C@H]4O)c3n2)ccc1O | 545 nM | 281 nM | 27 nM | 4.89 µM
8 | COc1ccc(/C=C/C=N/Nc2nc(N)c3ncn([C@@H]4O[C@H](CO)[C@@H](O)[C@H]4O)c3n2)cc1 | 425 nM | 677 nM | 59 nM | > 10 µM
9 | Nc1nc(N/N=C/C=C/c2ccccc2)nc2c1ncn2[C@@H]1O[C@H](CO)[C@@H](O)[C@H]1O | 1050 nM | 269 nM | 38 nM | > 10 µM
10 | Nc1nc(N/N=C/c2ccco2)nc2c1ncn2[C@@H]1O[C@H](CO)[C@@H](O)[C@H]1O | 1850 nM | 195 nM | 42 nM | > 10 µM
11 | Cc1ccc(/C=N/Nc2nc(N)c3ncn(C4O[C@H](CO)[C@@H](O)[C@H]4O)c3n2)cc1 (some centres undefined) | 1770 nM | 747 nM | 29 nM | > 10 µM
